Test results as given in ChEMBL document CHEMBL4118121, “Anticomplement compounds from Polygonum chinense” (Bioorg Med Chem Lett, 2018).
≈ marks a conversion by molar mass, not a printed value. Calls of active or inactive are those of the source. No cut-off for these calls is given here.

Tests used:
[1] = system: Erythrocyte; experiment: Anticomplement activity in sheep erythrocytes assessed as concentration required for 50% hemolytic inhibition by classic pathway pretreated for 10 mins with guinea pig serum followed by erythrocyte addition measured after 30 mins by spectrophotometeric method; assay type: functional, cell-based; settings: Ovis aries
[2] = system: Erythrocyte; experiment: Anticomplement activity in rabbit erythrocytes assessed as concentration required for 50% hemolytic inhibition by alternative pathway pretreated for 10 mins with normal human serum followed by erythrocyte addition measured after 30 mins by spectrophotometeric method; assay type: functional, cell-based; settings: Oryctolagus cuniculus
[3] = system: Erythrocyte; experiment: Anticomplement activity in sheep erythrocytes assessed as inhibition of hemolysis by classical pathway after 30 mins of compound treatment in normal human serum with C1q-depleted sera; assay type: functional, cell-based; settings: Ovis aries
[4] = system: Erythrocyte; experiment: Anticomplement activity in sheep erythrocytes assessed as inhibition of hemolysis by classical pathway after 30 mins of compound treatment in normal human serum with C5-depleted sera; assay type: functional, cell-based; settings: Ovis aries
[5] = system: Erythrocyte; experiment: Anticomplement activity in sheep erythrocytes assessed as inhibition of complete hemolysis by classical pathway after 30 mins of compound treatment in normal human serum; assay type: functional; settings: Ovis aries, 0.5 h
[6] = system: Erythrocyte; experiment: Anticomplement activity in sheep erythrocytes assessed as inhibition of hemolysis by classical pathway after 30 mins of compound treatment in normal human serum with C3-depleted sera; assay type: functional, cell-based; settings: Ovis aries
[7] = system: Erythrocyte; experiment: Anticomplement activity in sheep erythrocytes assessed as inhibition of hemolysis by classical pathway after 30 mins of compound treatment in normal human serum with C4-depleted sera; assay type: functional, cell-based; settings: Ovis aries
[8] = system: Erythrocyte; experiment: Anticomplement activity in sheep erythrocytes assessed as inhibition of hemolysis by classical pathway after 30 mins of compound treatment in normal human serum with C2-depleted sera; assay type: functional, cell-based; settings: Ovis aries
[9] = system: Erythrocyte; experiment: Anticomplement activity in sheep erythrocytes assessed as inhibition of hemolysis by classical pathway by measuring hemolysis after 30 mins of compound treatment in normal human serum with C5-depleted sera relative to control; assay type: functional, Ovis aries
[10] = system: Erythrocyte; experiment: Anticomplement activity in sheep erythrocytes assessed as inhibition of hemolysis by classical pathway by measuring hemolysis after 30 mins of compound treatment in normal human serum with C9-depleted sera relative to control; assay type: functional, Ovis aries
[11] = system: Erythrocyte; experiment: Anticomplement activity in sheep erythrocytes assessed as inhibition of hemolysis by classical pathway by measuring hemolysis after 30 mins of compound treatment in normal human serum with C3-depleted sera relative to control; assay type: functional, Ovis aries
[12] = system: Erythrocyte; experiment: Anticomplement activity in sheep erythrocytes assessed as inhibition of hemolysis by classical pathway by measuring hemolysis after 30 mins of compound treatment in normal human serum with C4-depleted sera relative to control; assay type: functional, Ovis aries
[13] = system: Erythrocyte; experiment: Anticomplement activity in sheep erythrocytes assessed as inhibition of hemolysis by classical pathway after 30 mins of compound treatment in normal human serum with C9-depleted sera; assay type: functional, cell-based; settings: Ovis aries

Row | Structure (SMILES) | IC50 [1] | IC50 [2] | further results
1 | COc1cc(/C=C(/C(=O)NCCc2ccc(O)cc2)c2cc(OC)c(O)c(OC)c2)ccc1O | 1340 µM | 2800 µM | –
2 | COc1c(O)cc2c(=O)oc3c(O)c(O[C@@H]4O[C@@H](C)[C@H](O)[C@@H](O)[C@H]4O)cc4c(=O)oc1c2c34 | 180 µM | 260 µM | inhibition [3]: Active; inhibition [4]: Active; MIC [5]: 340 µM (≈ 157 µg/mL); inhibition [6]: Active
3 | COc1c(O)cc2c(=O)oc3c(OC)c(O[C@@H]4OC[C@@H](O)[C@H](O)[C@H]4O)cc4c(=O)oc1c2c34 | 230 µM | 290 µM | –
4 | COc1cc([C@H]2c3cc(O)c(OC)cc3/C(=C/C(=O)NCCc3ccc(O)cc3)[C@H]2C(=O)NCCc2ccc(O)cc2)ccc1O | 390 µM | 420 µM | MIC [5]: 820 µM (≈ 512 µg/mL); inhibition [7]: Active; inhibition [6]: Active
5 | COc1cc([C@@H](O)[C@@H]2C(=O)NCCc3ccc(cc3)Oc3ccc(cc3)CCNC(=O)/C=C/c3cc(OC)c(O)c2c3)ccc1O | 520 µM | 720 µM | –
6 | COC(=O)c1cc(O)c(O)c(O)c1 [GALLIC ACID METHYL ESTER] | 840 µM | 1070 µM | –
7 | CCOC(=O)[C@@H](CC(=O)O)[C@H]1c2c(cc(O)c(O)c2O)C(=O)O[C@@H]1C(=O)OCC | 770 µM | 870 µM | –
8 | COc1cc(/C=C/C(=O)NCCc2ccc(O)cc2)ccc1O [N-TRANS-FERULOYL TYRAMINE] | 880 µM | 1330 µM | –
9 | O=c1oc2c(O)c(O)cc3c(=O)oc4c(O)c(O)cc1c4c23 [ELLAGIC ACID] | 320 µM | 320 µM | –
10 | Cc1ccc(C(=O)Nc2ccc(S(=O)(=O)O)c3cc(S(=O)(=O)O)cc(S(=O)(=O)O)c23)cc1NC(=O)c1cccc(NC(=O)Nc2cccc(C(=O)Nc3cc(C(=O)Nc4ccc(S(=O)(=O)O)c5cc(S(=O)(=O)O)cc(S(=O)(=O)O)c45)ccc3C)c2)c1 [SURAMIN] | 120 µM | 180 µM | –
11 | CC1(C)OC[C@H]([C@@H]2OC(=O)[C@]3(O)[C@@H]2OC(=O)C[C@H]3c2ccc(O)cc2)O1 | 920 µM | 1170 µM | –
12 | O=C1C[C@@H](c2ccc(O)cc2)[C@]2(O)C(=O)O[C@@H]([C@H](O)CO)[C@H]2O1 | 730 µM | 990 µM | inhibition [3]: inactive; inhibition [8]: inactive; MIC [5]: 1760 µM (≈ 571 µg/mL); inhibition (INH) [9]: <10.6%; inhibition (INH) [10]: <10.6%; inhibition (INH) [11]: <10.6%; inhibition (INH) [12]: <10.6%
13 | CCOC(=O)[C@H]1OC(=O)c2cc(O)c(O)c(O)c2[C@@H]1[C@H](CC(=O)O)C(=O)O | 460 µM | 550 µM | inhibition [3]: inactive; inhibition [8]: inactive; inhibition [13]: inactive; inhibition [4]: Active; MIC [5]: 840 µM (≈ 323 µg/mL); inhibition [7]: Active; inhibition [6]: Active
14 | O=C(O)C[C@H](C(=O)O)[C@H]1c2c(cc(O)c(O)c2O)C(=O)O[C@@H]1C(=O)O | 620 µM | 730 µM | –
15 | O=C(O)/C=C/c1ccc(O)c(O)c1 [CAFFEIC ACID] | 750 µM | 940 µM | –
16 | COc1cc2c(=O)oc3c(O)c(OC)cc4c(=O)oc(c1O)c2c34 | 1100 µM | 1310 µM | –
17 | CCOC(=O)C1CC(=O)c2oc(=O)c3cc(O)c(O)c(O)c3c21 (configuration not stated) [ETHYLBREVIFOLIN CARBOXYLATE] | 1080 µM | 1360 µM | –
18 | COc1cc([C@@H]2OC(=O)[C@@H]3[C@H]2CO[C@H]3c2ccc(O)c(OC)c2)ccc1O | 880 µM | 1160 µM | –
19 | O=C(O)c1cc(O)c(O)c(O)c1 [GALLIC ACID] | 590 µM | 740 µM | –
20 | CCOC(=O)[C@H]1OC(=O)c2cc(O)c(O)c(O)c2[C@@H]1CC(=O)OC | 1450 µM | 1840 µM | –
21 | COc1c(O)cc2c(=O)oc3c(OC)c(O)cc4c(=O)oc1c2c34 | 870 µM | 1070 µM | –
22 | CCOC(=O)c1cc(O)c(O)c(O)c1 [ETHYLGALLATE] | 1000 µM | 1240 µM | –
23 | O=C1CCc2c1oc(=O)c1cc(O)c(O)c(O)c21 | 1250 µM | 1560 µM | –
24 | CCOC(=O)[C@@H](CC(=O)OC)[C@H]1c2c(cc(O)c(O)c2O)C(=O)O[C@@H]1C(=O)OCC | 1250 µM | 1530 µM | –
25 | COc1c(O)cc2c(=O)oc3c(O)c(O)cc4c(=O)oc1c2c34 | 580 µM | 670 µM | –
26 | COc1cc(/C=C/C(=O)OCCc2ccc(O)cc2)ccc1O | 660 µM | 1010 µM | –
27 | COC(=O)C1CC(=O)c2oc(=O)c3cc(O)c(O)c(O)c3c21 (configuration not stated) [METHYLBREVIFOLIN CARBOXYLATE] | 1040 µM | 1260 µM | –
28 | CC(=O)N[C@H]1[C@@H](O[C@H]2[C@H](O)[C@@H](O)[C@H](O[C@H]3[C@H](OS(=O)(=O)O)[C@@H](OS(=O)(=O)O)[C@@H](O[C@H]4[C@H](O)[C@@H](OS(=O)(=O)O)C(O)O[C@H]4C(=O)O)O[C@@H]3CO)O[C@@H]2C(=O)O)O[C@H](COS(=O)(=O)O)[C@@H](O)[C@@H]1O (some centres not stated) | 93 µg/mL | 135 µg/mL | –
